Assay results reported in ChEMBL document CHEMBL5104180, “Design, Synthesis, and Evaluation of New Sugar-Substituted Imidazole Derivatives as Selective c-MYC Transcription Repressors Targeting the Promoter G-Quadruplex” (J Med Chem, 2022).
Activity calls are given as the source filed them. The calls are words filed in the database; no cut-off is given here.

Assays:
Quadruplex DNA [1] = assay: Stabilization of c-MYC G4 quadruplex DNA Pu22 (unknown origin) assessed as change in melting temperature at 2 uM by CD spectroscopy; type: nucleic-acid assay
Quadruplex DNA [2] = assay: Binding affinity to c-MYC G4- quadruplex DNA Pu22 (unknown origin) assessed as binding constant by SPR analysis; type: nucleic-acid assay
[3] = Binding affinity to G-rich KRAS DNA (unknown origin) assessed as binding constant by SPR analysis
[4] = Binding affinity to G-rich HRAS DNA (unknown origin) assessed as binding constant by SPR analysis
[5] = Binding affinity to G-rich NRAS RNA (unknown origin) assessed as binding constant by SPR analysis
[6] = Binding affinity to human G-rich Htg22 DNA assessed as binding constant by SPR analysis
[7] = Binding affinity to Hairpin DNA (unknown origin) assessed as binding constant by SPR analysis
Quadruplex DNA [8] = assay: Binding affinity to c-MYC G4 quadruplex DNA Pu22 (unknown origin) assessed as binding constant by SPR analysis; type: nucleic-acid assay
RNA = assay: Binding affinity to NRAS RNA mutant (unknown origin) assessed as binding constant by SPR analysis
HepG2 [9] = assay: Cytotoxicity against human HepG2 cells assessed as reduction in cell viability measured after 48 hrs by MTT assay; type: functional, cell-based; settings: HepG2, 48 h
MDA-MB-231 [10] = assay: Cytotoxicity against human MDA-MB-231 cells assessed as reduction in cell viability measured after 48 hrs by MTT assay; type: functional, cell-based; settings: MDA-MB-231, 48 h
[11] = Cytotoxicity against human HBL-100 cells assessed as reduction in cell viability measured after 48 hrs by MTT assay; type: toxicity, cell-based
[12] = test system: NM23-H2/c-MYC G4 quadruplex DNA; assay: Disruption of NM23-H2/c-MYC G4 quadruplex DNA (unknown origin) interaction incubated for 1 hrs by ELISA; type: protein assay
[13] = test system: BLM/c-MYC G4 quadruplex DNA; assay: Disruption of BLM/c-MYC G4 quadruplex DNA (unknown origin) interaction incubated for 1 hrs by ELISA; type: protein assay
[14] = test system: DHX36/c-MYC G4 quadruplex DNA; assay: Disruption of DHX36/c-MYC G4 quadruplex DNA (unknown origin) interaction incubated for 1 hrs by ELISA; type: protein assay
MDA-MB-231 [15] = assay: Cytotoxicity against human MDA-MB-231 cells measured after 48 hrs; type: functional, cell-based
Quadruplex DNA [16] = assay: Inhibition of c-MYC G4 quadruplex DNA in HEK293T cells co-transfected with Renilla and firefly luciferase assessed as decrease in relative luciferase at 2.5 to 5 uM measured after 24 hrs by dual luciferase reporter assay; type: cell-based; settings: Homo sapiens, dose 2.5-5 µM
Quadruplex DNA [17] = assay: Inhibition of c-MYC G4 quadruplex DNA in HEK293T cells co-transfected with Renilla and firefly luciferase assessed as decrease in relative luciferase measured after 24 hrs by dual luciferase reporter assay; type: cell-based; settings: Homo sapiens
MDA-MB-231 [18] = assay: Downregulation of c-MYC mRNA level in human MDA-MB-231 cells measured after 24 hrs by RT-PCR analysis; type: functional, cell-based
MDA-MB-231 [19] = assay: Downregulation of c-MYC expression in human MDA-MB-231 cells measured after 48 hrs by western blot analysis; type: functional, cell-based
MCF7 = assay: Cytotoxicity against human MCF7 cells measured after 48 hrs; type: functional, cell-based
HepG2 [20] = assay: Cytotoxicity against human HepG2 cells measured after 48 hrs; type: functional, cell-based
SiHa = assay: Cytotoxicity against human SiHa cells measured after 48 hrs; type: functional, cell-based
MDA-MB-231 [21] = assay: Antitumor activity against human MDA-MB-231 cells xenografted in BALB/c-nu/nu mouse assessed as relative increment ratio at 2.5 mg/kg, ip measured for 24 days; type: functional; settings: time 24 day
MDA-MB-231 [22] = assay: Antitumor activity against human MDA-MB-231 cells xenografted in BALB/c-nu/nu mouse assessed as tumor growth inhibition at 2.5 mg/kg, ip measured for 24 days; type: functional; settings: MDA-MB-231, 576 h, time 24 day, read-out: TGI
Quadruplex DNA [23] = assay: Inhibition of c-MYC G4 quadruplex DNA mutant in HEK293T cells co-transfected with Renilla and firefly luciferase assessed as decrease in relative luciferase at 2.5 to 5 uM measured after 24 hrs by dual luciferase reporter assay; type: cell-based; settings: Homo sapiens, dose 2.5-5 µM
MDA-MB-231 [24] = assay: Downregulation of VEGF expression in human MDA-MB-231 cells measured after 48 hrs by western blot analysis; type: functional, cell-based

With CCn1c2ccccc2c2cc(-c3nc(-c4ccc(N5CCN(C)CC5)cc4)c(-c4ccc(N5CCN(C)CC5)cc4)n3-c3ccc(OC)cc3)ccc21 as the compound, how does the ΔTm (Quadruplex DNA [1]) read?
Its ΔTm is 12.5 °C.

And the Kd (Quadruplex DNA [2])?
Its Kd is 7 µM.

And the Kd [3]?
Its Kd is 15.1 µM.

And the Kd [4]?
The Kd was 15.1 µM.

And the Kd [5]?
The Kd was over 20 µM.

And the Kd [6]?
The Kd was over 20 µM.

What about the Kd [7] of the same compound?
Its Kd is over 20 µM.

What about the Kd (Quadruplex DNA [8]) of the same compound?
The Kd was over 20 µM.

What about the Kd (RNA) of the same compound?
Its Kd is over 20 µM.

What about the IC50 (HepG2 [9]) of the same compound?
The IC50 was 6.1 µM.

And the IC50 (MDA-MB-231 [10])?
The IC50 was 5.1 µM.

What about the IC50 at 48 h [11] of the same compound?
The IC50 at 48 h was 11.2 µM.

And the IC50 [12]?
The IC50 was 25.8 µM.

And the IC50 [13]?
Its IC50 is 14.6 µM.

And the IC50 [14]?
Its IC50 is 5 µM.

And the Activity (MDA-MB-231 [15])?
The Activity was “Active”.

What about the inhibition (Quadruplex DNA [16]) of the same compound?
The inhibition was “Active”.

What about the Activity (Quadruplex DNA [17]) of the same compound?
Its Activity is “Active”.

What about the Activity (MDA-MB-231 [18]) of the same compound?
Its Activity is “Active”.

What about the Activity (MDA-MB-231 [19]) of the same compound?
The Activity was “Active”.

What about the Activity (MCF7) of the same compound?
The Activity was “Active”.

What about the Activity (HepG2 [20]) of the same compound?
The Activity was “Active”.

And the Activity (SiHa)?
Its Activity is “Active”.

What about the Activity (MDA-MB-231 [21]) of the same compound?
The Activity was 72.3%.

And the inhibition in vivo at 2.5 mg/kg (MDA-MB-231 [22])?
The inhibition in vivo at 2.5 mg/kg was 55.5%.

Which results are given for Cc1sc2c(c1C)C(c1ccc(Cl)cc1)=NC(CC(=O)OC(C)(C)C)c1nnc(C)n1-2 (stereo unspecified)?
inhibition (Quadruplex DNA [16]): Active; Activity (Quadruplex DNA [17]): Active; Activity (Quadruplex DNA [23]): Active; Activity (MDA-MB-231 [18]): Active; Activity (MDA-MB-231 [19]): Active; Activity (MDA-MB-231 [24]): Active
